According to US20110218343A1, “SMALL MOLECULE INHIBITORS OF ROTAMASE ENZYME ACTIVITY” (GLIAMED, INC., priority 1995, published 2011):

Experiments:
[1] = tested on: chick dorsal root ganglia (DRG) explants; assay: Neurite outgrowth in chick dorsal root ganglion cultures; format: cell-based; conditions: whole ganglion explants from ten day chick embryos; neurites counted 48 hours after drug treatment
Experimental: Dorsal root ganglia were dissected from chick embryos of ten day gestation. Whole ganglion explants were cultured on thin layer Matrigel-coated 12 well plates with Liebovitz L15 plus high glucose media supplemented with 2 mM glutamine and 10% fetal calf serum, and also containing 10 μM cytosine .β-D arabinofuranoside (Ara C) at 37° C. in an environment containing 5% CO2. Twenty-four hours later, the DRGs were treated with various concentrations of nerve growth factor, immunophilin ligands or combinations of NFG plus drugs. Forty-eight hours after drug treatment, the ganglia were visualized under phase contrast or Hoffman Modulation contrast with a Zeiss Axiovert inverted microscope. Photomicrographs of the explants were made, and neurite outgrowth was quantitated. Neurites longer than the DRG diameter were counted as positive, with total number of neurites quantitated per each experimental condition. Three to four DRGs are cultured per well, and each treatment was performed in duplicate.

[2] = biological target: FKBP (Homo sapiens, UniProt P62942); assay: FKBP rotamase (peptidyl-prolyl isomerase) inhibition, chymotrypsin-coupled assay; format: biochemical; conditions: apparent Ki; cis-trans isomerization of model substrate N-succinyl-Ala-Ala-Pro-Phe-p-nitroanilide, absorbance at 390 nm
Sequence of FKBP (P62942 whole entry): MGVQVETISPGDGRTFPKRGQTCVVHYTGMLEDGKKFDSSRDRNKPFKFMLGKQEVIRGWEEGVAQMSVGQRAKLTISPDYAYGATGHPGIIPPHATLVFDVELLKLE

Structure (SMILES) | ED50 (Neurite Outgrowth in Chick DRG) [1] [nM] | Ki [2] [nM]
CCC(C)(C)C(=O)C(=O)N1CCC[C@H]1C(=O)OCCCc1cc(OC)c(OC)c(OC)c1 [Example 6, 3-(3,4,5-Trimethoxyphenyl)-1-propyl(2S)-1-(3,3-dimethyl-1,2-dioxopentyl)-2-pyrrolidinecarboxylate] | 149 | –
CCOC(=O)[C@H](Cc1ccccc1)NC(=O)[C@@H]1CCCN1C(=O)C(=O)C(C)(C)CC [Example 24, 1-[1-(3,3-dimethyl-1,2-dioxopentyl)-L-proline]-L-phenylalanine ethyl ester] | – | 9000
CCC(C)(C)C(=O)C(=O)N1CCC[C@H]1C(=O)OC/C=C/c1ccc(Cl)c(Cl)c1 [Example 8, 3-(4,5-Dichlorophenyl)-1-prop-2-(E)-enyl(2S) -1-(3,3-dimethyl-1,2-dioxopentyl)-2-pyrrolidinecarboxylate] | 850 | –
CCC(C)(C)C(=O)C(=O)N1CCC[C@H]1C(=O)OCCCc1ccccc1 [Example 4, 3-phenyl-1-propyl(2S)-1-(3,3-dimethyl-1,2-dioxopentyl)-2-pyrrolidinecarboxylate] | 53 | –
CCC(C)(C)C(=O)C(=O)N1CCC[C@H]1C(=O)OC/C=C/c1cc(OC)c(OC)c(OC)c1 [Example 7, 3-(3,4,5-Trimethoxyphenyl)-1-prop-2-(E)-enyl(2S)-1-(3,3-dimethyl-1,2-dioxopentyl)-2-pyrrolidinecarboxylate] | 190 | –
CCC(C)(C)C(=O)C(=O)N1CCC[C@H]1C(=O)OC/C=C/c1ccc2c(c1)OCO2 [Example 9, 3-(4,5-Methylenedioxyphenyl)-1-prop-2-(E)-enyl(2S)-1-(3,3-dimethyl-1,2-dioxopentyl)-2-pyrrolidinecarboxylate] | 75 | –
